Assays:
[1] = system: human colorectal cancer cells (HCT15); assay: NanoSPECT/CT imaging of colorectal cancer animal model; format: in vivo, BALB/c nude mouse; details: caudal vein, 25 mCi/kg, imaged at 2, 4, 24, 48 h
Description: (1) Each BALB/c nude mouse that was 8 weeks old was subjected to subcutaneous injection of human colorectal cancer cells (HCT15, 1*10^6 cells) on a right hind leg, grew for 10-14 d, and started to be dosed with the drug when a cell tumor grew to a size of 50-100 mm^3.
(3) NanoSPECT/CT image analysis was carried out at 2nd h, 4th h, 24th h and 48th h after animal dosage (brand: Mediso).
(4) Obtained images were subjected to image recombination and outputting by VivoQuamt software.

[2] = system: human colorectal cancer cells (HCT15); assay: Colorectal cancer animal bio-distribution (gamma counter); format: in vivo, BALB/c nude mouse; details: 25 mCi/kg, n=3

tumor absorbability ([2]; 2nd h after caudal vein dosage): 0.88 % ID/g
gathering degree at the tumor hypoxia position ([2]; 24th h after caudal vein dosage): 1.08 % ID/g
Structure (SMILES): O=C([O-])CN1CCN(CC(=O)[O-])CCN(CC(=O)[O-])CCN(CC(=O)[O-])CC1.[111In+3] [^111In-DOTA]
drug gathering at tumor hypoxia position, nanoSPECT/CT [1]: no obvious drug gathering phenomenon

— patent publication US11654203B2
